In ChEMBL document CHEMBL1130043, “Chemometric methodologies in a quantitative structure-activity relationship study: the antibacterial activity of 6-aminoquinolones” (1997):

Legend:
Type in all cases: functional
Escherichia coli [1] = assay: Antibacterial activity against Escherichia coli ATCC 8739(Gram negative) strain.
Escherichia coli [2] = assay: Antibacterial activity against Escherichia coli ISF 432(Gram negative) strain.
Enterobacter cloacae = assay: Antibacterial activity against Enterobacter cloacae OMNFI 174 (Gram negative) strain.
Klebsiella pneumoniae = assay: Antibacterial activity against Klebsiella pneumoniae ATCC 10031 (Gram negative) strain.
Providencia stuartii = assay: Antibacterial activity against Providencia stuartii CNUR 5(Gram negative) strain.
Pseudomonas aeruginosa [3] = assay: Antibacterial activity against Pseudomonas aeruginosa ATCC 9027(Gram negative) strain.
Shigella = assay: Antibacterial activity against Shigella enteritidis (Gram negative) strain.
[4] = system: Staphylococcus epidermidis; assay: Antibacterial activity against Staphylococcus epidermidis HCF Berset C (Gram positive) strain.
[5] = system: Staphylococcus epidermidis; assay: The compound was tested in vitro for antibacterial activity against Staphylococcus epidermidis CPHL A2 (Gram positive) strain
Staphylococcus aureus [6] = assay: Antibacterial activity against Staphylococcus aureus MPR 5 (Gram positive) strain.
Enterococcus faecalis = assay: Antibacterial activity against Streptococcus faecalis LEP Br (Gram positive) strain.
Staphylococcus aureus [7] = assay: Antibacterial activity against Staphylococcus aureus ATCC 6538 (Gram positive) strain.
[8] = system: Acinetobacter calcoaceticus; assay: Antibacterial activity against Acinetobacter calcoaceticus OSMPV 113 (Gram negative) strain.
[9] = system: Staphylococcus epidermidis; assay: The compound was tested in vitro for antibacterial activity against Staphylococcus epidermidis CPHL A2 (Gram positive) strain.
[10] = system: Acinetobacter calcoaceticus; assay: The compound was tested for in vitro antibacterial activity against Acinetobacter calcoaceticus OSMPV 113(Gram negative) strain.
Pseudomonas aeruginosa [11] = assay: The compound was tested for in vitro antibacterial activity against Pseudomonas aeruginosa ATCC 9027(Gram negative) strain.
[12] = system: Staphylococcus epidermidis; assay: Antibacterial activity against Staphylococcus epidermidis CPHL A2 (Gram positive) strain, activity is expressed as log2MIC.
[13] = system: Acinetobacter calcoaceticus; assay: The compound was tested for in vitro antibacterial activity against Acinetobacter calcoaceticus OSMPV 113 (Gram negative) strain.
Escherichia coli [14] = assay: The compound was tested for in vitro antibacterial activity against Escherichia coli ATCC 8739 (Gram negative) strain.
Escherichia coli [15] = assay: The compound was tested for in vitro antibacterial activity against Escherichia coli ISF 432 (Gram negative) strain.
Pseudomonas aeruginosa [16] = assay: The compound was tested for in vitro antibacterial activity against Pseudomonas aeruginosa ATCC 9027 (Gram negative) strain.
Staphylococcus aureus [17] = assay: The compound was tested for in vitro antibacterial activity against Staphylococcus aureus ATCC 6538 (Gram positive) strain.
Staphylococcus aureus [18] = assay: The compound was tested for in vitro antibacterial activity against Staphylococcus aureus MPR 5 (Gram positive) strain.

| Structure (SMILES) | Log2 MIC (Escherichia coli [1]) | Log2 MIC (Escherichia coli [2]) | Log2 MIC (Enterobacter cloacae) | Log2 MIC (Klebsiella pneumoniae) | Log2 MIC (Providencia stuartii) | Log2 MIC (Pseudomonas aeruginosa [3]) | Log2 MIC (Shigella) | Log2 MIC [4] | Log2 MIC [5] | Log2 MIC (Staphylococcus aureus [6]) | Log2 MIC (Enterococcus faecalis) | Log2 MIC (Staphylococcus aureus [7]) | Log2 MIC [8] | other results |
| --- | --- | --- | --- | --- | --- | --- | --- | --- | --- | --- | --- | --- | --- | --- |
| Cc1c(N2CCN(C)CC2)c(N)cc2c(=O)c(C(=O)O)cn(C3CC3)c12 | 12 | 12 | 10 | 12 | 6 | 6 | 11 | 7 | 7 | 8 | 5 | 8 | – | – |
| CC(=O)NC1CCN(c2c(N)cc3c(=O)c(C(=O)O)cn(C4CC4)c3c2C)C1 (stereo not drawn) | 10 | 10 | 5 | 9 | 2 | 3 | 5 | 3 | 3 | 3 | 1 | 3 | 5 | – |
| CC(=O)NC1CCN(c2cc3c(cc2N)c(=O)c(C(=O)O)cn3C2CC2)C1 (stereo not drawn) | 5 | 5 | 0 | 5 | 0 | 0 | 0 | 0 | 0 | 0 | 0 | 0 | 0 | – |
| Cc1c(N2CCOCC2)c(N)cc2c(=O)c(C(=O)O)cn(C3CC3)c12 | 12 | 12 | 10 | 12 | 8 | 7 | 10 | 10 | 9 | 10 | 7 | 10 | – | – |
| Cc1c(N2CCC(O)CC2)c(N)cc2c(=O)c(C(=O)O)cn(C3CC3)c12 | 7 | 12 | 8 | 12 | 7 | 6 | 9 | 11 | 11 | 10 | 8 | 11 | 10 | – |
| Nc1cc2c(=O)c(C(=O)O)cn(C3CC3)c2cc1Cl | 6 | 6 | 3 | 6 | 1 | 0 | 3 | 1 | – | 0 | 0 | 0 | 0 | Log2 MIC [9]: 0 |
| Cc1c(N2CCCC2)c(N)cc2c(=O)c(C(=O)O)cn(C3CC3)c12 | 2 | 7 | 1 | 8 | 1 | 0 | 1 | 3 | 3 | 5 | 1 | 5 | 3 | – |
| Nc1cc2c(=O)c(C(=O)O)cn(C3CC3)c2cc1N1CCC(N)C1 (stereo not drawn) | 7 | 8 | 3 | 7 | 0 | 3 | 3 | 0 | 0 | 0 | 0 | 0 | 0 | – |
| CN1CCN(c2nc3c(c(N)c2N)c(=O)c(C(=O)O)cn3C2CC2)CC1 | 9 | 13 | 9 | 13 | 8 | 4 | 8 | 6 | 6 | 6 | 4 | 6 | 8 | – |
| Cc1c(N2CCSCC2)c(N)cc2c(=O)c(C(=O)O)cn(C3CC3)c12 | 9 | 12 | 9 | 12.5 | 6 | 7 | 10 | 10 | 10 | 11 | 8 | 11 | 10 | – |
| Cc1c(N2CCNC(C)C2)c(N)cc2c(=O)c(C(=O)O)cn(C3CC3)c12 (stereo not drawn) | 10 | 12 | 10 | 12 | 6 | 7 | 11 | 7 | 7 | 7 | 5 | 7 | 6 | – |
| O=C(O)c1cn(C2CC2)c2cc(N3CCNCC3)c(F)cc2c1=O [CIPROFLOXACIN] | – | – | – | 12 | 11 | 11 | – | – | 11 | – | 8 | – | 11 | Log2 MIC [10]: 11; Log2 MIC (Pseudomonas aeruginosa [11]): 11; Log2 MIC [12]: 11 |
| CN1CCN(c2c(F)cc3c(=O)c(C(=O)O)cn4c3c2SCC4)CC1 [RUFLOXACIN] | – | – | 8 | 9 | 6 | – | 10 | 7 | – | – | 5 | – | – | Log2 MIC [13]: 7; Log2 MIC (Escherichia coli [14]): 9; Log2 MIC (Escherichia coli [15]): 9; Log2 MIC (Pseudomonas aeruginosa [16]): 5; Log2 MIC [12]: 8; Log2 MIC (Staphylococcus aureus [17]): 8; Log2 MIC (Staphylococcus aureus [18]): 8 |
